Measured values reported in ChEMBL document CHEMBL1122462, “Potential antiatherosclerotic agents. 4. [(Functionalized-alkyl)amino]benzoic acid analogues of cetaben” (1983).

What was measured:
Rattus norvegicus [1] = assay: In vivo Triglyceride lowering activity at dose as 0.01 % of the diet; type: functional
[2] = molecular target: T1, Sterol O-acyltransferase 1 (Rattus norvegicus) (UniProt O70536); assay: In vitro inhibitory activity against acyl coenzyme A:cholesterol acyltransferase; design: concentration or dose not given beside the values; conditions: concentration not given here
T1 sequence (whole entry): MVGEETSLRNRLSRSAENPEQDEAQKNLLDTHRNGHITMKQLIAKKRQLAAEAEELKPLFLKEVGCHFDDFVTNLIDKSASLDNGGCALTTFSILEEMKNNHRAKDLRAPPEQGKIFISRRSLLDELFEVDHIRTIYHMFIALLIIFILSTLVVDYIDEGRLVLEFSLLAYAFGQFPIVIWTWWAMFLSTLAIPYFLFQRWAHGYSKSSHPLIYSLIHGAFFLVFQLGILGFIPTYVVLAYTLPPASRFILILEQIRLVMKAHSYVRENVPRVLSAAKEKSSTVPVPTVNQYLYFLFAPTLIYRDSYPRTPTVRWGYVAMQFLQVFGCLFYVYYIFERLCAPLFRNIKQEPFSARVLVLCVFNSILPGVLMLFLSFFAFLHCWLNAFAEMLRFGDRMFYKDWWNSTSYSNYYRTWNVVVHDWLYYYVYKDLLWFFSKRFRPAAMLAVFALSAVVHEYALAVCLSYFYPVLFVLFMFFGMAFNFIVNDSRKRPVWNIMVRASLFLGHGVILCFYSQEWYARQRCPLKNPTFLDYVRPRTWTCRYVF

Rattus norvegicus [3] = assay: In vivo sterol lowering activity, dosed as 0.03 % of the diet; type: functional
Rattus norvegicus [4] = assay: In vivo sterol lowering activity at dose of 0.10 % of the diet; type: functional
Rattus norvegicus [5] = assay: In vivo Triglyceride lowering activity at a dose of 0.10 % of the diet; type: functional
Rattus norvegicus [6] = assay: In vivo Triglyceride lowering activity at dose as 0.03 % of the diet; type: functional
Rattus norvegicus [7] = assay: In vivo Sterol lowering activity at dose as 0.01% of the diet; type: functional

Br.CCOC(=O)c1ccc(NCCCCCCCCCCCSC(=N)N)cc1
serum triglyceride level (% of control) (Rattus norvegicus [1]): 85% | inhibition [2]: < 73% | serum sterol level, percent of control (Rattus norvegicus [3]): 107% | serum sterol level, % of control (Rattus norvegicus [4]): 98% | serum triglyceride level (% of control) (Rattus norvegicus [5]): <59% | triglyceride lowering activity (Rattus norvegicus [6]): <69% | serum sterol level, percent of control (Rattus norvegicus [7]): 100%

O=C(O)c1ccc(NCCCCCCCCCCCS)cc1
serum triglyceride level (% of control) (Rattus norvegicus [1]): <65% | inhibition [2]: < 26% | serum sterol level, percent of control (Rattus norvegicus [3]): 89% | serum sterol level, % of control (Rattus norvegicus [4]): <84% | serum triglyceride level (% of control) (Rattus norvegicus [5]): <50% | triglyceride lowering activity (Rattus norvegicus [6]): <61% | serum sterol level, percent of control (Rattus norvegicus [7]): 92%

CC(C)CCCCCCCCCCCCCCNc1ccc(C(=O)O)cc1
serum triglyceride level (% of control) (Rattus norvegicus [1]): 76% | inhibition [2]: < 51% | serum sterol level, percent of control (Rattus norvegicus [3]): <67% | serum sterol level, % of control (Rattus norvegicus [4]): <44% | serum triglyceride level (% of control) (Rattus norvegicus [5]): <29% | triglyceride lowering activity (Rattus norvegicus [6]): <50% | serum sterol level, percent of control (Rattus norvegicus [7]): <79%

CCCCCCCCCCCCCCCCN(CC(=O)OCC)c1ccc(C(=O)OC)cc1
serum triglyceride level (% of control) (Rattus norvegicus [1]): 113% | inhibition [2]: 11% | serum sterol level, percent of control (Rattus norvegicus [3]): 100% | serum sterol level, % of control (Rattus norvegicus [4]): 104% | serum triglyceride level (% of control) (Rattus norvegicus [5]): 104% | triglyceride lowering activity (Rattus norvegicus [6]): 97% | serum sterol level, percent of control (Rattus norvegicus [7]): 106%

CCCCSCCCCCCCCCCCNc1ccc(C(=O)O)cc1
serum triglyceride level (% of control) (Rattus norvegicus [1]): 79% | inhibition [2]: < 40% | serum sterol level, percent of control (Rattus norvegicus [3]): 91% | serum sterol level, % of control (Rattus norvegicus [4]): <78% | serum triglyceride level (% of control) (Rattus norvegicus [5]): <62% | triglyceride lowering activity (Rattus norvegicus [6]): <71% | serum sterol level, percent of control (Rattus norvegicus [7]): 91%

CCOC(=O)c1ccc(NCC(F)(F)C(F)(F)C(F)(F)C(F)(F)C(F)(F)C(F)(F)C(F)(F)F)cc1
serum triglyceride level (% of control) (Rattus norvegicus [1]): <47% | inhibition [2]: 7% | serum sterol level, percent of control (Rattus norvegicus [3]): <65% | serum sterol level, % of control (Rattus norvegicus [4]): <44% | serum triglyceride level (% of control) (Rattus norvegicus [5]): <35% | triglyceride lowering activity (Rattus norvegicus [6]): <43% | serum sterol level, percent of control (Rattus norvegicus [7]): <81%

CCOC(=O)c1ccc(NCCCCCCCCCCCCCCC(C)(C)C)cc1
serum triglyceride level (% of control) (Rattus norvegicus [1]): 79% | inhibition [2]: 5% | serum sterol level, percent of control (Rattus norvegicus [3]): <78% | serum sterol level, % of control (Rattus norvegicus [4]): <68% | serum triglyceride level (% of control) (Rattus norvegicus [5]): <44% | triglyceride lowering activity (Rattus norvegicus [6]): <71% | serum sterol level, percent of control (Rattus norvegicus [7]): <69%

CCCCCC(=O)CCCCCCCCCCNc1ccc(C(=O)OCC)cc1
serum triglyceride level (% of control) (Rattus norvegicus [1]): <64% | inhibition [2]: < 44% | serum sterol level, percent of control (Rattus norvegicus [3]): 100% | serum sterol level, % of control (Rattus norvegicus [4]): 89% | serum triglyceride level (% of control) (Rattus norvegicus [5]): <42% | triglyceride lowering activity (Rattus norvegicus [6]): <58% | serum sterol level, percent of control (Rattus norvegicus [7]): 99%

CCCCCCCCCCC(=O)CCCCCNc1ccc(C(=O)OCC)cc1
serum triglyceride level (% of control) (Rattus norvegicus [1]): 103% | inhibition [2]: < 19% | serum sterol level, percent of control (Rattus norvegicus [3]): 104% | serum sterol level, % of control (Rattus norvegicus [4]): 107% | serum triglyceride level (% of control) (Rattus norvegicus [5]): 81% | triglyceride lowering activity (Rattus norvegicus [6]): 86% | serum sterol level, percent of control (Rattus norvegicus [7]): 109%

CCOC(=O)c1ccc(NCCCCCCCCCCCBr)cc1
serum triglyceride level (% of control) (Rattus norvegicus [1]): 83% | inhibition [2]: < 61% | serum sterol level, percent of control (Rattus norvegicus [3]): 94% | serum sterol level, % of control (Rattus norvegicus [4]): 101% | serum triglyceride level (% of control) (Rattus norvegicus [5]): 74% | triglyceride lowering activity (Rattus norvegicus [6]): 83% | serum sterol level, percent of control (Rattus norvegicus [7]): 108%

CC(C)CCCCCCCCCCCCCNc1ccc(C(=O)O)cc1
serum triglyceride level (% of control) (Rattus norvegicus [1]): 77% | inhibition [2]: < 63% | serum sterol level, percent of control (Rattus norvegicus [3]): <76% | serum sterol level, % of control (Rattus norvegicus [4]): <64% | serum triglyceride level (% of control) (Rattus norvegicus [5]): <29% | triglyceride lowering activity (Rattus norvegicus [6]): <68% | serum sterol level, percent of control (Rattus norvegicus [7]): <89%

CCOC(=O)c1ccc(NCCCCCCCCCCCCCCCCBr)cc1
serum triglyceride level (% of control) (Rattus norvegicus [1]): 100% | inhibition [2]: 10% | serum sterol level, percent of control (Rattus norvegicus [3]): 98% | serum sterol level, % of control (Rattus norvegicus [4]): 93% | serum triglyceride level (% of control) (Rattus norvegicus [5]): 100% | triglyceride lowering activity (Rattus norvegicus [6]): 84% | serum sterol level, percent of control (Rattus norvegicus [7]): 99%

CCOC(=O)c1ccc(NCCCCCCCCCCCCCCCCSC(C)=O)cc1
serum triglyceride level (% of control) (Rattus norvegicus [1]): 91% | inhibition [2]: 0% | serum sterol level, percent of control (Rattus norvegicus [3]): 96% | serum sterol level, % of control (Rattus norvegicus [4]): 93% | serum triglyceride level (% of control) (Rattus norvegicus [5]): <57% | triglyceride lowering activity (Rattus norvegicus [6]): 75% | serum sterol level, percent of control (Rattus norvegicus [7]): 98%

CCOC(=O)c1ccc(NCCCCCCCCCCCCCC[Si](C)(C)C)cc1
serum triglyceride level (% of control) (Rattus norvegicus [1]): <77% | inhibition [2]: < 50% | serum sterol level, percent of control (Rattus norvegicus [3]): <66% | serum sterol level, % of control (Rattus norvegicus [4]): <53% | serum triglyceride level (% of control) (Rattus norvegicus [5]): <62% | triglyceride lowering activity (Rattus norvegicus [6]): <66% | serum sterol level, percent of control (Rattus norvegicus [7]): 84%

CCOC(=O)c1ccc(NCCCCCCCCCCCCCCCC(F)(F)F)cc1
serum triglyceride level (% of control) (Rattus norvegicus [1]): <75% | inhibition [2]: 8% | serum sterol level, percent of control (Rattus norvegicus [3]): <72% | serum sterol level, % of control (Rattus norvegicus [4]): <75% | serum triglyceride level (% of control) (Rattus norvegicus [5]): <41% | triglyceride lowering activity (Rattus norvegicus [6]): <47% | serum sterol level, percent of control (Rattus norvegicus [7]): <83%

CCOC(=O)c1ccc(NCCCCCCCCCCCCCCC(C)C)cc1
serum triglyceride level (% of control) (Rattus norvegicus [1]): <66% | inhibition [2]: 0% | serum sterol level, percent of control (Rattus norvegicus [3]): <85% | serum sterol level, % of control (Rattus norvegicus [4]): <80% | serum triglyceride level (% of control) (Rattus norvegicus [5]): <58% | triglyceride lowering activity (Rattus norvegicus [6]): <54% | serum sterol level, percent of control (Rattus norvegicus [7]): 87%

CC(C)(C)CCCCCCCCCCCCNc1ccc(C(=O)O)cc1
serum triglyceride level (% of control) (Rattus norvegicus [1]): <75% | inhibition [2]: < 59% | serum sterol level, percent of control (Rattus norvegicus [3]): <77% | serum sterol level, % of control (Rattus norvegicus [4]): <75% | serum triglyceride level (% of control) (Rattus norvegicus [5]): <26% | triglyceride lowering activity (Rattus norvegicus [6]): <53% | serum sterol level, percent of control (Rattus norvegicus [7]): 94%

CCCCCC(=O)CCCCCCCCCCNc1ccc(C(=O)O)cc1
serum triglyceride level (% of control) (Rattus norvegicus [1]): <59% | inhibition [2]: < 33% | serum sterol level, percent of control (Rattus norvegicus [3]): 89% | serum sterol level, % of control (Rattus norvegicus [4]): <81% | serum triglyceride level (% of control) (Rattus norvegicus [5]): <42% | triglyceride lowering activity (Rattus norvegicus [6]): <57% | serum sterol level, percent of control (Rattus norvegicus [7]): 93%

CCCCCCCCCCC(C#N)CCCCCNc1ccc(C(=O)OCC)cc1 (configuration not stated)
serum triglyceride level (% of control) (Rattus norvegicus [1]): <66% | inhibition [2]: < 69% | serum sterol level, percent of control (Rattus norvegicus [3]): 97% | serum sterol level, % of control (Rattus norvegicus [4]): 87% | serum triglyceride level (% of control) (Rattus norvegicus [5]): <51% | triglyceride lowering activity (Rattus norvegicus [6]): <69% | serum sterol level, percent of control (Rattus norvegicus [7]): 100%

O=C(O)c1ccc(NCCCCCCCCCCCCCCCCS)cc1
serum triglyceride level (% of control) (Rattus norvegicus [1]): 67% | inhibition [2]: < 38% | serum sterol level, percent of control (Rattus norvegicus [3]): 101% | serum sterol level, % of control (Rattus norvegicus [4]): 101% | serum triglyceride level (% of control) (Rattus norvegicus [5]): <40% | triglyceride lowering activity (Rattus norvegicus [6]): <45% | serum sterol level, percent of control (Rattus norvegicus [7]): 96%

CCOC(=O)c1ccc(NCCCCCCCCCCCCCCCC(=O)OC)cc1
serum triglyceride level (% of control) (Rattus norvegicus [1]): 140% | inhibition [2]: 0% | serum sterol level, percent of control (Rattus norvegicus [3]): 110% | serum sterol level, % of control (Rattus norvegicus [4]): 104% | serum triglyceride level (% of control) (Rattus norvegicus [5]): 129% | triglyceride lowering activity (Rattus norvegicus [6]): 173% | serum sterol level, percent of control (Rattus norvegicus [7]): 105%
